Results on 27 compounds are retold here after ChEMBL document CHEMBL1127973, “A comparative molecular field analysis derived model of the binding of taxol analogues to microtubules” (Bioorg Med Chem Lett, 1994).

Assay [1] addresses T1, Tubulin (Homo sapiens) (UniProt P68371+Q9H4B7+P0DPH7+P68366+Q13509+Q71U36+P04350+Q3ZCM7+P07437+P68363+Q9BQE3+Q6PEY2+Q13885+Q9BVA1+Q9BUF5). Nature of the assay: Binding affinity to microtubules, activity expressed as log 1/ID50 of compound/ID50 of paclitaxel. Format: protein-complex assay.
Assay [2] addresses T1, Tubulin (Homo sapiens). Nature of the assay: Binding affinity to microtubules, activity expressed as ID50 of compound/ID50 of paclitaxel. The format is protein-complex assay.

In the case of `COc1ccc([C@H](NC(=O)c2ccccc2)[C@@H](O)C(=O)O[C@H]2C[C@@]3(O)[C@@H](OC(=O)c4ccccc4)[C@@H]4[C@]5(OC(C)=O)CO[C@@H]5C[C@H](O)[C@@]4(C)C(=O)[C@H](OC(C)=O)C(=C2C)C3(C)C)cc1`, the Log 1/ratio in assay [1] came out at 0.301. Further, the ID50 ratio in assay [2] is 0.5.

Take `CC(=O)O[C@@]12CO[C@@H]1C[C@H](OC(=O)[C@H](N)Cc1ccccc1)[C@@]1(C)C(=O)[C@H](O)C3=C(C)[C@@H](OC(=O)[C@H](O)[C@@H](NC(=O)OC(C)(C)C)c4ccccc4)C[C@@](O)([C@@H](OC(=O)c4ccccc4)[C@H]21)C3(C)C`: in assay [1], the Log 1/ratio came to 0. In addition, the ID50 ratio in assay [2] turned out to be 1.

For `CC(=O)O[C@H]1C(=O)[C@@]2(C)[C@H]([C@H](OC(=O)c3ccccc3)[C@]3(O)C[C@H](OC(=O)[C@H](O)[C@@H](NC(=O)c4ccc(C)cc4)c4ccccc4)C(C)=C1C3(C)C)[C@]1(OC(C)=O)CO[C@@H]1C[C@@H]2O`, in assay [1], the Log 1/ratio was -0.204. For the same compound, in assay [2], the ID50 ratio came out at 1.6.

Turning to `CC(=O)O[C@H]1C(=O)[C@@]2(C)[C@H]([C@H](OC(=O)c3ccccc3)[C@]3(O)C[C@H](OC(=O)[C@H](O)[C@@H](NC(=O)c4cccc(Cl)c4)c4ccccc4)C(C)=C1C3(C)C)[C@]1(OC(C)=O)CO[C@@H]1C[C@@H]2O`, the Log 1/ratio in assay [1] was -0.301. Further, the ID50 ratio in assay [2] was 2.

As to `COc1ccc(C(=O)N[C@@H](c2ccccc2)[C@@H](O)C(=O)O[C@H]2C[C@@]3(O)[C@@H](OC(=O)c4ccccc4)[C@@H]4[C@]5(OC(C)=O)CO[C@@H]5C[C@H](O)[C@@]4(C)C(=O)[C@H](OC(C)=O)C(=C2C)C3(C)C)cc1`, the Log 1/ratio in assay [1] was determined as 0.222. The ID50 ratio in assay [2] was 0.6.

Take `CC(=O)O[C@H]1C(=O)[C@@]2(C)[C@H]([C@H](OC(=O)c3ccccc3)[C@]3(O)C[C@H](OC(=O)[C@H](O)[C@@H](NC(=O)c4ccc(Cl)cc4)c4ccccc4)C(C)=C1C3(C)C)[C@]1(OC(C)=O)CO[C@@H]1C[C@@H]2O`: in assay [1], the Log 1/ratio was -0.38. Further, in assay [2], the ID50 ratio came to 2.4.

Turning to `CC(=O)O[C@H]1C(=O)[C@@]2(C)[C@H]([C@H](OC(=O)c3ccccc3)[C@]3(O)C[C@H](OC(=O)[C@H](O)[C@@H](NC(=O)c4ccccc4)c4ccc(O)cc4)C(C)=C1C3(C)C)[C@]1(OC(C)=O)CO[C@@H]1C[C@@H]2O`, the Log 1/ratio in assay [1] was found to be 0.0969. Moreover, in assay [2], the ID50 ratio was 0.8.

Take `CC(=O)O[C@@]12CO[C@@H]1C[C@H](O)[C@@]1(C)C(=O)[C@H](O)C3=C(C)[C@@H](OC(=O)CCc4ccccc4)C[C@@](O)([C@@H](OC(=O)c4ccccc4)[C@H]21)C3(C)C`: the Log 1/ratio in assay [1] is -1.23. Further, the ID50 ratio in assay [2] worked out at 17.

With `CC(=O)O[C@@]12CO[C@@H]1C[C@H](O)[C@@]1(C)C(=O)[C@H](O)C3=C(C)[C@@H](OC(=O)[C@H](O)[C@@H](NC(=O)c4ccccc4)c4ccccc4)C[C@@](O)([C@@H](OC(=O)c4ccccc4)[C@H]21)C3(C)C`, in assay [1], the Log 1/ratio is -0.114. Further, the ID50 ratio in assay [2] is 1.3.

For `CC(=O)O[C@H]1C(=O)[C@@]2(C)[C@H]([C@H](OC(=O)c3ccccc3)[C@]3(O)C[C@H](OC(=O)[C@H](O)[C@@H](NC(=O)c4ccc(C(F)(F)F)cc4)c4ccccc4)C(C)=C1C3(C)C)[C@]1(OC(C)=O)CO[C@@H]1C[C@@H]2O`, the Log 1/ratio in assay [1] is -0.778. Further, the ID50 ratio in assay [2] is 6.

In the case of `CC(=O)O[C@@]12CO[C@@H]1C[C@H](OC(=O)CN)[C@@]1(C)C(=O)[C@H](OC(=O)CN)C3=C(C)[C@@H](OC(=O)[C@H](O)[C@@H](NC(=O)OC(C)(C)C)c4ccccc4)C[C@@](O)([C@@H](OC(=O)c4ccccc4)[C@H]21)C3(C)C`, the Log 1/ratio in assay [1] is -0.0792. Further, the ID50 ratio in assay [2] amounted to 1.2.

Regarding `CC(=O)O[C@H]1C(=O)[C@@]2(C)[C@H]([C@H](OC(=O)c3ccccc3)[C@]3(O)C[C@H](OC(=O)[C@H](O)[C@@H](NC(=O)c4ccccc4)c4cccc(Cl)c4)C(C)=C1C3(C)C)[C@]1(OC(C)=O)CO[C@@H]1C[C@@H]2O`, the Log 1/ratio in assay [1] is -0.644. For the same compound, in assay [2], the ID50 ratio came out at 4.4.

Regarding `CC(=O)O[C@H]1C(=O)[C@@]2(C)[C@H]([C@H](OC(=O)c3ccccc3)[C@]3(O)C[C@H](OC(=O)[C@H](O)[C@@H](NC(=O)c4ccccc4)c4ccc(C)cc4)C(C)=C1C3(C)C)[C@]1(OC(C)=O)CO[C@@H]1C[C@@H]2O`, in assay [1], the Log 1/ratio was -0.38. In assay [2], the ID50 ratio came to 2.4.

As to `CC(=O)O[C@H]1C(=O)[C@@]2(C)[C@H]([C@H](OC(=O)c3ccccc3)[C@]3(O)C[C@H](OC(=O)[C@@H](O)[C@H](NC(=O)OC(C)(C)C)c4ccccc4)C(C)=C1C3(C)C)[C@]1(OC(C)=O)CO[C@@H]1C[C@@H]2O`, the Log 1/ratio in assay [1] was -1.48. The ID50 ratio in assay [2] is 30.

Turning to `CC(=O)O[C@@]12CO[C@@H]1C[C@H](O)[C@@]1(C)C(=O)[C@H](O)C3=C(C)[C@@H](OC(=O)[C@H](O)[C@@H](NC(=O)OC(C)(C)C)c4ccccc4)C[C@@](O)([C@@H](OC(=O)c4ccccc4)[C@H]21)C3(C)C` (stereo in doubt; 39), the Log 1/ratio in assay [1] came out at 0.301. The ID50 ratio in assay [2] amounted to 0.5.

Take `CC(=O)O[C@H]1C[C@]2(C)[C@@H](O)C[C@H]3OC[C@@]3(OC(C)=O)[C@H]2[C@H](OC(=O)c2ccccc2)[C@@]2(O)C[C@H](OC(=O)[C@H](O)[C@@H](NC(=O)c3ccccc3)c3ccccc3)C(C)C1C2(C)C` (some centres undefined): in assay [1], the Log 1/ratio is -0.477. For the same compound, the ID50 ratio in assay [2] was 3.

Consider `CC(=O)O[C@@]12CO[C@@H]1C[C@H](O)[C@@]1(C)C(=O)[C@H](O)C3=C(C)[C@@H](OC(=O)[C@H](NC(=O)OC(C)(C)C)[C@@H](O)c4ccccc4)C[C@@](O)([C@@H](OC(=O)c4ccccc4)[C@H]21)C3(C)C`, for which, in assay [1], the Log 1/ratio is -1. Besides, the ID50 ratio in assay [2] amounted to 10.

Regarding `CC(=O)O[C@@]12CO[C@@H]1C[C@H](O)[C@@]1(C)C(=O)[C@H](O)C3=C(C)[C@@H](OC(=O)[C@H](O)Cc4ccccc4)C[C@@](O)([C@@H](OC(=O)c4ccccc4)[C@H]21)C3(C)C`, the Log 1/ratio in assay [1] is -0.653. Moreover, the ID50 ratio in assay [2] was determined as 4.5.

As to `CC(=O)O[C@@]12CO[C@@H]1C[C@H](O)[C@@]1(C)C(=O)[C@H](O)C3=C(C)[C@@H](OC(=O)[C@H](O)[C@H](N)c4ccccc4)C[C@@](O)([C@@H](OC(=O)c4ccccc4)[C@H]21)C3(C)C`, the Log 1/ratio in assay [1] is -1.48. Moreover, the ID50 ratio in assay [2] came out at 30.

On to `CC(=O)O[C@@]12CO[C@@H]1C[C@H](O)[C@@]1(C)C(=O)[C@H](O)C3=C(C)[C@@H](OC(=O)[C@@H](O)Cc4ccccc4)C[C@@](O)([C@@H](OC(=O)c4ccccc4)[C@H]21)C3(C)C`, for which, in assay [1], the Log 1/ratio is -0.544. The ID50 ratio in assay [2] was 3.5.

Take `CC(=O)O[C@@]12CO[C@@H]1C[C@H](O)[C@@]1(C)C(=O)[C@H](O)C3=C(C)[C@@H](OC(=O)[C@@H](O)[C@@H](N)c4ccccc4)C[C@@](O)([C@@H](OC(=O)c4ccccc4)[C@H]21)C3(C)C`: in assay [1], the Log 1/ratio was -1.48. Further, the ID50 ratio in assay [2] turned out to be 30.

Consider `CC(=O)O[C@H]1C(=O)[C@@]2(C)[C@H]([C@H](OC(=O)c3ccccc3)[C@]3(O)C[C@H](OC(=O)[C@H](O)[C@@H](N)c4ccccc4)C(C)=C1C3(C)C)[C@]1(OC(C)=O)CO[C@@H]1C[C@@H]2O`, for which the Log 1/ratio in assay [1] is -1.64. Besides, the ID50 ratio in assay [2] was 44.

For the compound `CC(=O)O[C@H]1C(=O)[C@@]2(C)[C@H]([C@H](OC(=O)c3ccccc3)[C@]3(O)C[C@H](OC(=O)[C@H](O)[C@@H](NC(=O)c4ccccc4)c4ccc5ccccc5c4)C(C)=C1C3(C)C)[C@]1(OC(C)=O)CO[C@@H]1C[C@@H]2O`, the Log 1/ratio in assay [1] was -0.851. Also, the ID50 ratio in assay [2] came to 7.1.

In the case of `CC(=O)O[C@H]1C(=O)[C@@]2(C)[C@H]([C@H](OC(=O)c3ccccc3)[C@]3(O)C[C@H](OC(=O)[C@@H](NC(=O)c4ccccc4)[C@H](O)c4ccccc4)C(C)=C1C3(C)C)[C@]1(OC(C)=O)CO[C@@H]1C[C@@H]2O`, in assay [1], the Log 1/ratio was -2.04. In addition, the ID50 ratio in assay [2] amounted to 110.

For `CC(=O)O[C@@]12CO[C@@H]1C[C@H](O)[C@@]1(C)C(=O)[C@H](O)C3=C(C)[C@@H](OC(=O)[C@@H](O)[C@H](NC(=O)c4ccccc4)c4ccccc4)C[C@@](O)([C@@H](OC(=O)c4ccccc4)[C@H]21)C3(C)C`, the Log 1/ratio in assay [1] is -0.602. In assay [2], the ID50 ratio turned out to be 4.

Turning to `CC(=O)O[C@@]12CO[C@@H]1C[C@H](O)[C@@]1(C)C(=O)[C@H](O)C3=C(C)[C@@H](OC(=O)[C@H](O)[C@@H](NC(=O)CCCC(=O)O)c4ccccc4)C[C@@](O)([C@@H](OC(=O)c4ccccc4)[C@H]21)C3(C)C`, the Log 1/ratio in assay [1] came to 0. Moreover, the ID50 ratio in assay [2] was found to be 1.

For `CC(=O)O[C@H]1C(=O)[C@@]2(C)[C@H]([C@H](OC(=O)c3ccccc3)[C@]3(O)C[C@H](OC(=O)[C@H](O)[C@@H](NC(=O)C(C)=O)c4ccccc4)C(C)=C1C3(C)C)[C@]1(OC(C)=O)CO[C@@H]1C[C@@H]2O`, the Log 1/ratio in assay [1] is -0.544. Also, the ID50 ratio in assay [2] stood at 3.5.
